Results published in ChEMBL document CHEMBL1156766, “Chloro-substituted 3-alkylamino-4H-1,2,4-benzothiadiazine 1,1-dioxides as ATP-sensitive potassium channel activators: impact of the position of the chlorine atom on the aromatic ring on activity and tissue selectivity” (J Med Chem, 2010).
Calls of active or inactive are those of the source. The calls are words filed in the database; no cut-off is given here.

Tests used:
[1] = Inhibition of glucose-induced insulin secretion in rat pancreatic islets assessed as residual insulin release at 10 uM; assay type: functional, Pancreatic islet
[2] = Inhibition of glucose-induced insulin secretion in rat pancreatic islets assessed as residual insulin release at 1 uM; assay type: functional, Pancreatic islet
[3] = Inhibition of glucose-induced insulin secretion in rat pancreatic islets assessed as residual insulin release at 50 uM; assay type: functional, Pancreatic islet
[4] = system: Aorta; assay: Myorelaxant activity in rat aortic ring assessed as inhibition of KCL-induced contraction; assay type: functional, tissue-based
[5] = Dissociation constant, pKa of the compound; assay type: physicochemical
[6] = molecular target: Sulfonylurea receptor 1, Kir6.2 (Homo sapiens, UniProt Q09428+Q14654); assay: Activation of human recombinant SUR1/Kir6.2 channel expressed in HEK293 cells assessed as increase in ionic current by whole cell patch clamp assay; assay type: cell-based
Chain of Sulfonylurea receptor 1, Kir6.2 (Q14654 whole entry): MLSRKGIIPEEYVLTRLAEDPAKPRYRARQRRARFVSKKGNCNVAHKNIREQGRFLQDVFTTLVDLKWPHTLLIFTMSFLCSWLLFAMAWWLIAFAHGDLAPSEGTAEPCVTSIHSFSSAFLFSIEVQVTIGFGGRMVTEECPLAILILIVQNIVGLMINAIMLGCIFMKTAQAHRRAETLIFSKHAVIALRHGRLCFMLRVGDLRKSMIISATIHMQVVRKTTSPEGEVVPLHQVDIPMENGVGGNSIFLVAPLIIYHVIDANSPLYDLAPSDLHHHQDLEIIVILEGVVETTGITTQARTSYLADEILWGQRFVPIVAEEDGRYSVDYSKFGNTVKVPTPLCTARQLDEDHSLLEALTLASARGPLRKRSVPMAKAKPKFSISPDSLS
Chain of Sulfonylurea receptor 1, Kir6.2 (Q09428 whole entry): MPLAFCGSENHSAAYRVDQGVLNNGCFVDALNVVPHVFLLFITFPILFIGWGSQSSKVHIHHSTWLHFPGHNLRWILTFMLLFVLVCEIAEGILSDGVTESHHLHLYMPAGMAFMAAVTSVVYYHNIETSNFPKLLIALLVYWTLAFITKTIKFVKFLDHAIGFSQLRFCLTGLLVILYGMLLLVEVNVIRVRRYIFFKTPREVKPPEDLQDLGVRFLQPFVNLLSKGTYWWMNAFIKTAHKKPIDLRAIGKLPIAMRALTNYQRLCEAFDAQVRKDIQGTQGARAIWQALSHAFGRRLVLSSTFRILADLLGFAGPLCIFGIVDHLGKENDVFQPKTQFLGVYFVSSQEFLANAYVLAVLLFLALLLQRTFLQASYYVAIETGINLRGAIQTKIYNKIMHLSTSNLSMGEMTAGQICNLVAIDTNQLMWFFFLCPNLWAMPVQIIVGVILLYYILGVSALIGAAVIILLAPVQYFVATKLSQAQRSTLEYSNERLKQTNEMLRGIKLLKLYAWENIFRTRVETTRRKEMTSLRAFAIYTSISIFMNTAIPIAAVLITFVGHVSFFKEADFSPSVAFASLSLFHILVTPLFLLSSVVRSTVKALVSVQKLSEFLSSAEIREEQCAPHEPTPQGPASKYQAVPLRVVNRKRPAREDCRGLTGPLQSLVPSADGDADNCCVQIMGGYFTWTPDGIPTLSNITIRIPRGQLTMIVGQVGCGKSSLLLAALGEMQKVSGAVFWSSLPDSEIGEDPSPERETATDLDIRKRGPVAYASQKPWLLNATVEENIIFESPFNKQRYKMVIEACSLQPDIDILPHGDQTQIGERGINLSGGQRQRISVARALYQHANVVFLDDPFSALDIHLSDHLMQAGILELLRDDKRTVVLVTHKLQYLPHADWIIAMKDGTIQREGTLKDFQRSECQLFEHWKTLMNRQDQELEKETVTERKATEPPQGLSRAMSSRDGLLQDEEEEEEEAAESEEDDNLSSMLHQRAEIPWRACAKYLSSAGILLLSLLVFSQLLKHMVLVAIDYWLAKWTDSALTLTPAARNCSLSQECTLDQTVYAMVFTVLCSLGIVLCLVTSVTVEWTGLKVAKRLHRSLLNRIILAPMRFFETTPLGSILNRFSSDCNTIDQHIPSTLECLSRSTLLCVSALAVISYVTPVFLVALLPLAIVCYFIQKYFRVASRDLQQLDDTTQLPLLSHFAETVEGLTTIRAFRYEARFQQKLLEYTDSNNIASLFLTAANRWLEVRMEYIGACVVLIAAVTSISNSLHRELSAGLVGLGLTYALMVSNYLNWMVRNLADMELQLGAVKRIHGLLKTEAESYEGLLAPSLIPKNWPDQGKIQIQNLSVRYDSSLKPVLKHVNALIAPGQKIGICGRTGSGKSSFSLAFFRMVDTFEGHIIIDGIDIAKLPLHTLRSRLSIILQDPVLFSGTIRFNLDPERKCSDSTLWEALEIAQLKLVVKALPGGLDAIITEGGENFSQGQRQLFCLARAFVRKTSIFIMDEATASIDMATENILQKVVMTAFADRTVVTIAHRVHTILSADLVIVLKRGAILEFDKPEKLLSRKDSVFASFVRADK

[7] = molecular target: Sulfonylurea receptor 1, Kir6.2 (Homo sapiens) (UniProt Q14654+Q09428); assay: Activation of human recombinant SUR1/Kir6.2 channel expressed in HEK293 cells assessed as increase in ionic current by whole cell patch clamp assay in presence of KATP channel blocker Tolbutamide; assay type: cell-based
[8] = Increase in 86Rb outflow in perfused rat pancreatic islets at 10 uM in presence of extracellular calcium and glucose; assay type: functional, Pancreatic islet
[9] = Ratio of EC50 for rat aortic ring to IC50 for rat pancreatic islets; assay type: functional, Aorta
[10] = Inhibition of glucose-induced insulin secretion in rat pancreatic islets assessed as residual insulin release; assay type: functional, cell-based; conditions: Pancreatic islet
[11] = Inhibition of glucose-induced insulin secretion in rat pancreatic islets assessed as residual insulin release at 0.1 uM; assay type: functional, Pancreatic islet

Structure (SMILES) | EC50 [4] | Activity [1] | Activity [2] | Activity [3] | further results
CCCNC1=NS(=O)(=O)c2cc(Cl)ccc2N1 |  | 14.24% | 83.41% | 3.56% | 
O=S1(=O)NC(NC2CCC2)=Nc2cc(Cl)ccc21 |  |  |  |  | EC50 [6]: 0.08 µM
CC(C)NC1=NS(=O)(=O)c2cc(Cl)c(Cl)cc2N1 |  | 6.29% | 13.19% | 4.96% | 
O=S1(=O)N=C(NC2CCC2)Nc2cc(Cl)ccc21 | > 300 µM | 11.27% | 66.17% | 9.58% | Activity [7]: inactive; Activity [8]: 1.45 %/min
O=S1(=O)N=C(NC2CC2)Nc2cc(Cl)ccc21 | 156 µM | 12.74% | 93.02% | 7.97% | 
CCCNC1=NS(=O)(=O)c2ccc(Cl)cc2N1 | 73.2 µM | 14.45% | 71.5% | 8.74% | 
O=S1(=O)N=C(NC2CCC2)Nc2ccc(Cl)cc21 |  | 6.44% | 60.19% | 8.11% | Ratio EC50 [9]: 75; IC50 [10]: 0.48 µM
CC(C)NC1=NS(=O)(=O)c2cc(Cl)ccc2N1 |  | 4.84% | 36.19% | 5.66% | Activity [11]: 90.41%
CCNC1=NS(=O)(=O)c2cc(Cl)ccc2N1 |  | 10.65% | 40.79% | 2.09% | 
O=S1(=O)N=C(NC2CC2)Nc2ccc(Cl)cc21 | 190 µM | 26.56% | 84% | 5.82% | 
CCNC1=NS(=O)(=O)c2ccc(Cl)cc2N1 | 54.8 µM | 9.55% | 21.7% |  | 

Second part, led by results:

EC50 [4] | Structure (SMILES) | Activity [1] | Activity [2] | Activity [3] | further results
> 300 µM | CC(C)NC1=NS(=O)(=O)c2cccc(Cl)c2N1 |  |  | 96.88% | pKa [5]: 9.11
90.4 µM | CCNC1=NS(=O)(=O)c2cccc(Cl)c2N1 |  |  | 80.4% | 
126 µM | O=S1(=O)N=C(NC2CCC2)Nc2c(Cl)cccc21 |  |  | 102.55% | 
> 300 µM | CCNC1=NS(=O)(=O)c2c(Cl)cccc2N1 | 37.55% | 95.72% |  | 
180 µM | CCCNC1=NS(=O)(=O)c2cccc(Cl)c2N1 |  |  | 94.69% | 
> 30 µM | O=S1(=O)N=C(NC2CCC2)Nc2cccc(Cl)c21 | 30.23% | 77.56% |  | 
53.4 µM | CC(C)NC1=NS(=O)(=O)c2ccc(Cl)cc2N1 | 7.51% | 13.2% | 6.38% | Ratio EC50 [9]: 230; IC50 [10]: 0.23 µM; Activity [11]: 76.72%; pKa [5]: 9.35
